{"source": "patent US9687458B2", "about": "“Trans-clomiphene for use in cancer therapy” (REPROS THERAPEUTICS INC., priority 2012, dated 2017)", "key": {"human estrogen receptor": {"molecular_target": "T1, human estrogen receptor (Homo sapiens, UniProt P03372)", "T1 sequence (P03372 1-595)": "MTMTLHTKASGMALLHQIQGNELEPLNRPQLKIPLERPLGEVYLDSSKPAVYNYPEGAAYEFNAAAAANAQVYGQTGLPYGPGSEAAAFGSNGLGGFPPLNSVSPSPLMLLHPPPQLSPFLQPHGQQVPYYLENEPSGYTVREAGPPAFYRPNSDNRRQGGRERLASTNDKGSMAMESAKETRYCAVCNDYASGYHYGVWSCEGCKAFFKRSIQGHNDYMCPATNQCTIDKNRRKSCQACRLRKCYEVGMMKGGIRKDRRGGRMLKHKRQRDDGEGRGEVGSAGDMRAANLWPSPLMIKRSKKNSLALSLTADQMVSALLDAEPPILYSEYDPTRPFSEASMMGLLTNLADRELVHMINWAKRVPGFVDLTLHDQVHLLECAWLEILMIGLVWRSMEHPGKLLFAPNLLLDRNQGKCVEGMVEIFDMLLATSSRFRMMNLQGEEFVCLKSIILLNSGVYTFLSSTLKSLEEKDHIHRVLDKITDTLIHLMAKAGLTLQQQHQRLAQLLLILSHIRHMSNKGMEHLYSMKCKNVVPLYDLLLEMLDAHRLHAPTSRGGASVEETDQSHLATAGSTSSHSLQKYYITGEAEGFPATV", "conditions": "Murdter et al., Hum. Mol. Genet. 21:1145 (2012); cited from earlier work"}, "circulating IGF-1": {"tested_on": "circulating IGF-1", "conditions": "Campbell et al., J. Clin. Pathol: Mol Pathol. 54:307 (2001); cited from earlier work"}, "[1]": {"tested_on": "corticotropin, prolactin or thyroid stimulating hormone", "experiment": "Studies on the effects of enclomiphine on men: other hormones secreted by the pituitary", "assay_type": "in vivo, human", "source_text": "The present invention provides methods for reducing IGF-1 levels in a subject in need of such treatment. […] Clomiphene is thought to exert its effects at the level of the hypothamus-pituitary axis by specifically stimulating secretion of the gonadotropic hormones LH and FSH. Neither of these gonadotropic hormones is known to play a general role in establishment or proliferation of cancer. Studies on the effects of enclomiphine on men found no changes in other hormones secreted by the pituitary such as corticotropin, prolactin or thyroid stimulating hormone. Growth hormone (GH), secreted by the pituitary is known to drive production of IGF-1 by the liver. Without wishing to be bound by theory it is believed that trans-clomiphene suppresses the pituitary production of GH thereby reducing the endocrine stimulated production of liver IGF-1. The activity of trans-clomiphene in reducing serum IGF-1 levels, renders the compositions useful for treating a variety of cancers having strong expression or overexpression of IGF-1 as a common underlying etiology."}, "serum IGF-1 [2]": {"tested_on": "serum IGF-1", "experiment": "Second clinical study: serum IGF-1 after three months of trans-clomiphene or placebo", "assay_type": "in vivo, human", "conditions": "for Mean Change from Baseline (st dev): P<0.0001 vs placebo; for mean reduction in serum IGF-1 levels: three months", "procedure": "Another study measured serum IGF-1 levels in human males with low/low-normal testosterone following treatment with trans-clomiphene. Briefly 38 males were administered trans-clomiphene at 12.5 mg per day, 35 males were administered trans-clomiphene at 25 mg per day and 43 males were administered a placebo (control group). Serum IGF-1 levels were measured by immunoenzymometric assay as described above at baseline and following three months of treatment with trans-clomiphene or placebo for each treatment group."}, "serum IGF-1 [3]": {"tested_on": "serum IGF-1", "experiment": "Third clinical study: IGF-1 after 6 weeks of trans-clomiphene compared to AndroGel", "assay_type": "in vivo, human"}, "[4]": {"tested_on": "serum (circulating) IGF-1", "experiment": "First clinical study: serum IGF-1 by immunoenzymometric assay, trans-clomiphene vs Testim over six months", "assay_type": "in vivo, human", "procedure": "The effect of the isolated trans-clomiphene isomer on free serum IGF-1 was tested in three separate clinical studies.\nAdult male subjects with a morning total testosterone blood level of <300 ng/dl and a serum LH of <15 IU/ml who had previously undergone between 6 months and two years of topical testosterone therapy were administered either trans-clomiphene (25 mg/day via oral capsule) or a topical testosterone gel (Testim®, 50 mg applied daily) over a six month period according to the first study. Following an initial screening visit (Visit 1-V1), topical testosterone replacement therapy in the subjects was discontinued for either three weeks or three months. At the end of the washout period (Visit 2-V2), quantitative determination of baseline serum (circulating) IGF-1 measurements were made in the subjects by immunoenzymometric assay (Immunodiagnostics Systems Ltd., OCTEIA® IGF-1 kit) and treatment with either trans-clomiphene or Testim® was initiated. Follow-up measurements were taken at 3 months post initial dose (Visit 4-V4), 6 months post initial dose (Visit 5-V5) and one month after cessation of treatment (Visit 6-V6). Seven subjects completed six months of trans-clomiphene therapy and five subjects completed six months of Testim® therapy. The results are presented at FIG. 1. At baseline (V2), serum IGF-1 levels in both patient groups averaged about 140 ng/ml. […] Thus, circulating serum IGF-1 levels were reduced over 40% in subjects administered trans-clomiphene whereas exogenous testosterone had no effect on circulating serum IGF-1. Importantly, aside from low testosterone, these subjects were otherwise healthy—thus, administering trans-clomiphene provides an effective method for reducing serum levels of IGF-1 produced by the liver (i.e. growth-hormone dependent IGF-1)."}}}
{"smiles": "CCN(CC)CCOc1ccc(C(=C(Cl)c2ccccc2)c2ccc(O)cc2)cc1", "note": "[4-hydroxy-trans-clomiphene]", "values": [{"measurement": "ligand strength for the human estrogen receptor", "setting": "human estrogen receptor", "value": "strong ligands"}]}
{"smiles": "CCC(=C(c1ccccc1)c1ccc(OCCN(C)C)cc1)c1ccccc1", "note": "[tamoxifen, 2-[4-(1,2-diphenylbut-1-enyl)phenoxy]-N,N-dimethyl-ethanamine]", "values": [{"measurement": "change to circulating IGF-1 levels after treatment", "setting": "circulating IGF-1", "value": "no change"}]}
{"smiles": "CCN(CC)CCOc1ccc(/C(=C(/Cl)c2ccccc2)c2ccccc2)cc1", "note": "[trans-clomiphene]", "values": [{"measurement": "changes in other hormones secreted by the pituitary (corticotropin, prolactin, thyroid stimulating hormone)", "setting": "[1]", "value": "no changes"}, {"measurement": "Baseline IGF-1 (st dev)", "setting": "serum IGF-1 [2]; 12.5 mg per day group, n=38, before treatment", "value": "115.2 (35.11) μg/L"}, {"measurement": "Mean Change from Baseline (st dev)", "setting": "serum IGF-1 [2]; 12.5 mg per day, n=38, month 3", "value": "−36.8 (22.3) μg/L"}, {"measurement": "Month 3 IGF-1 (st dev)", "setting": "serum IGF-1 [2]; 12.5 mg per day, n=38, three months of treatment", "value": "77.3 (30.8) μg/L"}, {"measurement": "mean reduction in serum IGF-1 levels", "setting": "serum IGF-1 [2]; 12.5 mg per day", "value": "~32", "unit": "%"}, {"measurement": "Baseline IGF-1 (st dev)", "setting": "serum IGF-1 [2]; 25 mg per day group, n=35, before treatment", "value": "107.2 (39.4) μg/L"}, {"measurement": "Mean Change from Baseline (st dev)", "setting": "serum IGF-1 [2]; 25 mg per day, n=35, month 3", "value": "−38.3 (29.5) μg/L"}, {"measurement": "Month 3 IGF-1 (st dev)", "setting": "serum IGF-1 [2]; 25 mg per day, n=35, three months of treatment", "value": "70.4 (38.6) μg/L"}, {"measurement": "mean reduction in serum IGF-1 levels", "setting": "serum IGF-1 [2]; 25 mg per day", "value": 36, "unit": "%"}, {"measurement": "IGF-1 - Naïve men", "setting": "serum IGF-1 [3]; 6.25 mg daily group, n=12, baseline", "value": "101 ± 43", "unit": "µg/L"}, {"measurement": "IGF-1 - Treated men", "setting": "serum IGF-1 [3]; 6.25 mg daily, n=12, after 6 weeks, p = 0.008 compared to AndroGel (MWW)", "value": "54 ± 30", "unit": "µg/L"}, {"measurement": "IGF-1 - Naïve men", "setting": "serum IGF-1 [3]; 12.5 mg daily group, n=10, baseline", "value": "94 ± 47", "unit": "µg/L"}, {"measurement": "IGF-1 - Treated men", "setting": "serum IGF-1 [3]; 12.5 mg daily, n=10, after 6 weeks, p = 0.0035 compared to AndroGel (MWW)", "value": "50 ± 24", "unit": "µg/L"}, {"measurement": "IGF-1 - Naïve men", "setting": "serum IGF-1 [3]; 25 mg daily group, n=12, baseline", "value": "96 ± 45", "unit": "µg/L"}, {"measurement": "IGF-1 - Treated men", "setting": "serum IGF-1 [3]; 25 mg daily, n=12, after 6 weeks, p = 0.008 compared to AndroGel (MWW)", "value": "62 ± 42", "unit": "µg/L"}, {"measurement": "serum IGF-1 level at baseline (V2)", "setting": "[4]; group average at end of washout, before treatment, hypogonadal adult males", "value": "about 140 ng/ml"}, {"measurement": "serum IGF-1 level after 3 months of treatment (V4)", "setting": "[4]; trans-clomiphene 25 mg/day oral capsule, n=7", "value": "below 80 ng/ml"}, {"measurement": "serum IGF-1 after 6 months of treatment (V5)", "setting": "[4]; trans-clomiphene 25 mg/day oral or Testim 50 mg daily topical", "value": "remained depressed"}, {"measurement": "reduction of circulating serum IGF-1", "setting": "[4]; trans-clomiphene 25 mg/day, vs baseline", "value": "over 40%"}]}
